Assay results reported in PMC2775898 (The EMBO Journal, 2009).
Where a SMILES comes first, the peptide text is derived from it. The star is where a group is joined. Biotin = O=C1N[C@H]2[C@H](CS[C@H]2CCCCC(=O)*)N1

Biological target: T1, Tiam2 PHCCEx domain (Mus musculus, UniProt Q6ZPF3)
T1 sequence (Q6ZPF3 500-757): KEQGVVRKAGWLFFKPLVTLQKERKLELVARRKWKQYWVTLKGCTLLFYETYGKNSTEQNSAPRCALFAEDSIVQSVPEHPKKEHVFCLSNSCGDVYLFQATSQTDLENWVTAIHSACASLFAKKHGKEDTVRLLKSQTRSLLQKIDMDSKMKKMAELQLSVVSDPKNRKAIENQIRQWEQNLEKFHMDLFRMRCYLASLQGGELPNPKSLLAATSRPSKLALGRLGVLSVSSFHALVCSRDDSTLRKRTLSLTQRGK
Assay: Equilibrium SPR binding of biotinylated peptides to the Tiam2 PHCCEx domain
Conditions: N-terminal biotinylated peptide immobilized

Row | Compound | Binding to the Tiam2 PHCCEx domain (in words)
1 | CC[C@H](C)[C@H](NC(=O)CNC(=O)[C@H](CC(C)C)NC(=O)[C@H](CCC(=O)O)NC(=O)CNC(=O)[C@@H]1CCCN1C(=O)[C@H](CCC(=O)O)NC(=O)[C@H](C)NC(=O)[C@H](CCC(=O)O)NC(=O)[C@H](CCCNC(=N)N)NC(=O)CCCC[C@@H]1SC[C@@H]2NC(=O)N[C@@H]21)C(=O)N[C@@H](C)C(=O)N[C@@H](CC(C)C)C(=O)N[C@@H](CCCNC(=N)N)C(=O)NCC(=O)NCC(=O)NCC(=O)N[C@H](C(=O)N[C@@H](C)C(=O)N[C@@H](CC(=O)O)C(=O)O)[C@@H](C)O [ephrin B3 286–303] (Biotin-REAEPGELGIALRGGGTAD-OH; C-terminus assumed) | weaker binding
2 | CC[C@H](C)[C@H](NC(=O)[C@@H](NC(=O)[C@H](CC(=O)O)NC(=O)[C@H](CO)NC(=O)[C@@H]1CCCN1C(=O)[C@H](CCC(=O)O)NC(=O)[C@H](CO)NC(=O)CNC(=O)[C@H](CC(N)=O)NC(=O)CCCC[C@@H]1SC[C@@H]2NC(=O)N[C@@H]21)C(C)C)C(=O)N[C@H](C(=O)N1CCC[C@H]1C(=O)N[C@@H](CC(C)C)C(=O)N[C@@H](CCCNC(=N)N)C(=O)N[C@H](C(=O)N[C@@H](C)C(=O)N[C@@H](CC(=O)O)C(=O)N[C@@H](CO)C(=O)N[C@H](C(=O)N[C@@H](Cc1ccccc1)C(=O)O)C(C)C)[C@@H](C)O)[C@@H](C)CC [ephrin B2 285–302] (Biotin-NGSEPSDVIIPLRTADSVF-OH; C-terminus assumed) | in the micromolar range
3 | CC[C@H](C)[C@H](NC(=O)[C@H](CC(=O)O)NC(=O)[C@H](CO)NC(=O)[C@@H]1CCCN1C(=O)[C@H](CCC(=O)O)NC(=O)[C@@H](NC(=O)CNC(=O)[C@H](C)NC(=O)CCCC[C@@H]1SC[C@@H]2NC(=O)N[C@@H]21)[C@@H](C)O)C(=O)N[C@H](C(=O)N[C@H](C(=O)N1CCC[C@H]1C(=O)N[C@@H](CC(C)C)C(=O)N[C@@H](CCCNC(=N)N)C(=O)N[C@H](C(=O)N[C@H](C(=O)N[C@@H](CCC(=O)O)C(=O)N[C@@H](CC(N)=O)C(=O)N[C@@H](CC(N)=O)C(=O)N[C@@H](Cc1ccc(O)cc1)C(=O)O)[C@@H](C)O)[C@@H](C)O)[C@@H](C)CC)[C@@H](C)CC [ephrin B1 294–312] (Biotin-AGTEPSDIIIPLRTTENNY-OH; C-terminus assumed) | in the micromolar range
